Laboratory results reported in ChEMBL document CHEMBL1201862, “PubChem BioAssay data set” (2004).
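Cells were grown in 96-well plates and exposed to each compound for 48 hours at five concentrations; endpoints were interpolated linearly between bracketing concentrations, or set to the highest concentration if not reached. GI50 marks 50% less growth.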 The source made the active and inactive calls. Cut-off read from the data, not from the text of the source: active = GI50 up to about 1.1 µM and inactive = higher.

Key:
Test in all cases: DTP human tumour cell line panel, 48 h
[1] = test system: A498
[2] = test system: CAKI-1
[3] = test system: HCC 2998
[4] = test system: HCT-116
[5] = test system: HCT-15
[6] = test system: HL-60
[7] = test system: Malme-3M
[8] = test system: NCI-H23
[9] = test system: OVCAR-4
[10] = test system: PC-3
[11] = test system: RXF 393
[12] = test system: SF-268
[13] = test system: SF-295
[14] = test system: SK-MEL-28
[15] = test system: SN12C
[16] = test system: U-251
[17] = test system: UACC-62
[18] = test system: MCF7
[19] = test system: BT-549

Structure (SMILES) | GI50 [1] | GI50 [2] | GI50 [3] | GI50 [4] | GI50 [5] | GI50 [6] | GI50 [7] | GI50 [8] | GI50 [9] | GI50 [10] | GI50 [11] | GI50 [12] | GI50 [13] | GI50 [14] | GI50 [15] | GI50 [16] | GI50 [17] | GI50 [18] | GI50 [19]
Clc1ccc(-c2nnc(C34CC5CC(CC(C5)C3)C4)o2)cc1 | > 100 µM (inactive) | > 100 µM (inactive) | > 100 µM (inactive) | > 100 µM (inactive) | > 100 µM | > 100 µM (inactive) | > 100 µM (inactive) | > 100 µM (inactive) | > 100 µM (inactive) | > 100 µM (inactive) | > 100 µM (inactive) | > 100 µM (inactive) | > 100 µM (inactive) | > 100 µM (inactive) | > 100 µM (inactive) | > 100 µM (inactive) | > 100 µM (inactive) |  | 
O=C(O)c1ccccc1NC(=O)C1CCCCC1 | 31.8 µM (inactive) |  | > 100 µM (inactive) | > 100 µM (inactive) | > 100 µM | > 100 µM (inactive) | > 100 µM (inactive) |  | > 100 µM (inactive) |  |  | > 100 µM (inactive) | > 100 µM (inactive) | > 100 µM (inactive) | > 100 µM (inactive) | > 100 µM (inactive) | > 100 µM (inactive) |  | 
C[n+]1c(-c2ccc(/C=N/Nc3n[nH]c(=S)n3N/N=C/c3ccc(-c4cn5ccccc5[n+]4C)cc3)cc2)cn2ccccc21 |  |  | > 100 µM (inactive) | > 100 µM (inactive) | > 100 µM | > 100 µM (inactive) |  |  | > 100 µM (inactive) | > 100 µM (inactive) |  | > 100 µM (inactive) | > 100 µM (inactive) | > 100 µM (inactive) | > 100 µM (inactive) | > 100 µM (inactive) |  | > 100 µM (inactive) | 
Cc1nn2c(C(=O)N/N=C/c3ccc([N+](=O)[O-])cc3)c(C)nc2s1 | > 100 µM (inactive) | > 100 µM (inactive) | > 100 µM (inactive) | > 100 µM (inactive) | > 100 µM | > 100 µM (inactive) | > 100 µM (inactive) | > 100 µM (inactive) | > 100 µM (inactive) |  | > 100 µM (inactive) | > 100 µM (inactive) | > 100 µM (inactive) | > 100 µM (inactive) | > 100 µM (inactive) | 23.6 µM (inactive) | > 100 µM (inactive) | 90.4 µM (inactive) | > 100 µM (inactive)
COC(=O)c1c2c(cc3c1CC1(Cc4cc5c(c(C=O)c4C1)CCCC5)C3)CCCC2 (centres undefined) | 66.8 µM (inactive) |  | 39 µM (inactive) | 23.3 µM (inactive) | 34.4 µM | 30 µM (inactive) | > 100 µM (inactive) | 57.9 µM (inactive) | 34.1 µM (inactive) | 40.5 µM (inactive) | 32.7 µM (inactive) |  | > 100 µM (inactive) |  | 70 µM (inactive) | 43.8 µM (inactive) | 23.5 µM (inactive) | 27 µM (inactive) | 
CN(C)c1ccc2c(=O)c3ccccc3oc2n1 |  | > 100 µM (inactive) | > 100 µM (inactive) |  | > 100 µM | > 100 µM (inactive) | > 100 µM (inactive) | > 100 µM (inactive) | > 100 µM (inactive) |  | > 100 µM (inactive) | > 100 µM (inactive) | > 100 µM (inactive) | > 100 µM (inactive) | > 100 µM (inactive) |  | > 100 µM (inactive) |  | 
Oc1cn(-c2ccc(Cl)cc2)nc1-c1n[nH]c(=S)n1-c1ccccc1 | 14 µM (inactive) | 8.09 µM (inactive) |  | 6.37 µM (inactive) | 3.36 µM | 4.13 µM (inactive) | 16.2 µM (inactive) | 10.5 µM (inactive) | 52.6 µM (inactive) | 27.5 µM (inactive) | 11.1 µM (inactive) | 10.4 µM (inactive) | 4.94 µM (inactive) | 16.8 µM (inactive) | 17.8 µM (inactive) | 10.8 µM (inactive) | 11.4 µM (inactive) | 4.42 µM (inactive) | 
C=C1N(C=O)C(C)(C)N(O)C1(C)C |  | > 100 µM (inactive) | > 100 µM (inactive) | > 100 µM (inactive) | > 100 µM |  | > 100 µM (inactive) | > 100 µM (inactive) | > 100 µM (inactive) | > 100 µM (inactive) | > 100 µM (inactive) | > 100 µM (inactive) | > 100 µM (inactive) | > 100 µM (inactive) | > 100 µM (inactive) | > 100 µM (inactive) | > 100 µM (inactive) | > 100 µM (inactive) | 
CNC(=S)N(C1CCCCC1)C1CCCCC1 |  | 70.6 µM (inactive) | > 100 µM (inactive) | 54 µM (inactive) | > 100 µM | 27.4 µM (inactive) | 47 µM (inactive) | 82.8 µM (inactive) | 90.6 µM (inactive) | 35.1 µM (inactive) | > 100 µM (inactive) | > 100 µM (inactive) | 61.2 µM (inactive) | > 100 µM (inactive) | > 100 µM (inactive) | > 100 µM (inactive) | > 100 µM (inactive) | 54.8 µM (inactive) | 
c1cc2nnc1SCCSCCCSCCS2 | > 100 µM (inactive) | > 100 µM (inactive) | > 100 µM (inactive) | > 100 µM (inactive) | > 100 µM | > 100 µM (inactive) | > 100 µM (inactive) | > 100 µM (inactive) | 34.6 µM (inactive) | > 100 µM (inactive) | > 100 µM (inactive) | 2.88 µM (inactive) | > 100 µM (inactive) | 29.2 µM (inactive) | > 100 µM (inactive) | > 100 µM (inactive) | > 100 µM (inactive) | > 100 µM (inactive) | 
COc1cccc2c1C(=O)c1c(O)c3c(c(O)c1C2=O)CC(O)(C(C)=O)CC3OC1OC(COC(C)=O)C(OC(C)=O)C(OC(C)=O)C1OC(C)=O (centres undefined) |  |  |  | 55.8 µM (inactive) | 47.2 µM | 53.8 µM (inactive) | 35.6 µM (inactive) |  | 18 µM (inactive) | > 100 µM (inactive) | 0.269 µM (active) | 11.4 µM (inactive) | 17.2 µM (inactive) | 85.5 µM (inactive) | 48.3 µM (inactive) | 12.9 µM (inactive) | 33.2 µM (inactive) | 65.2 µM (inactive) | 
O=C1C(=Cc2cccc(O)c2)N=C(c2ccccc2)N1n1c(-c2ccccc2)nc2ccccc2c1=O | 34.7 µM (inactive) | 24.7 µM (inactive) |  | 17.5 µM (inactive) | 34.7 µM | 25.2 µM (inactive) | 27.7 µM (inactive) | 22.1 µM (inactive) | 29.6 µM (inactive) | 23.8 µM (inactive) | 8.28 µM (inactive) | 25 µM (inactive) | 24 µM (inactive) | 25.2 µM (inactive) | 34.1 µM (inactive) | 35.4 µM (inactive) | 19.7 µM (inactive) |  | 
CC(O[Si](c1ccccc1)(c1ccccc1)C(C)(C)C)[C@H](NC(=O)OC(C)(C)C)C(=O)O[Si](c1ccccc1)(c1ccccc1)C(C)(C)C (some centres undefined) | > 10 µM (inactive) | 12.4 µM (inactive) | 15.9 µM (inactive) | 11.2 µM (inactive) | 5.24 µM | 14.4 µM (inactive) | 16.5 µM (inactive) | 11.7 µM (inactive) | 1.46 µM (inactive) | 8.38 µM (inactive) | 13 µM (inactive) | 14.3 µM (inactive) | 8.04 µM (inactive) | 14.3 µM (inactive) |  | 14.4 µM (inactive) |  | 17.9 µM (inactive) | 
COC1C(N(C)C)=C(c2ccccc2)C(=O)N2CCc3ccccc3C12 (centres undefined) | > 100 µM (inactive) | > 100 µM (inactive) |  | > 100 µM (inactive) | > 100 µM | > 100 µM (inactive) | > 100 µM (inactive) | > 100 µM (inactive) | > 100 µM (inactive) | > 100 µM (inactive) | > 100 µM (inactive) | > 100 µM (inactive) | > 100 µM (inactive) | > 100 µM (inactive) | > 100 µM (inactive) | > 100 µM (inactive) | > 100 µM (inactive) | > 100 µM (inactive) | 
CCCC[C@@H](C)/C=C1\CN2CCC[C@H]2[C@@](C)(O)[C@@H]1O | > 100 µM (inactive) | 4.2 µM (inactive) | 71.3 µM (inactive) |  | > 100 µM | 1.92 µM (inactive) | > 100 µM (inactive) | 32.9 µM (inactive) | 21.9 µM (inactive) | > 100 µM (inactive) | 0.0292 µM (active) | 44.7 µM (inactive) | 55.7 µM (inactive) | > 100 µM (inactive) |  | 66.2 µM (inactive) | 38.7 µM (inactive) | 80.2 µM (inactive) | 
CC(=O)NC1C(=O)CC(c2ccccc2)N(C)C1c1ccccc1 (centres undefined) | > 100 µM (inactive) | > 100 µM (inactive) | > 100 µM (inactive) | > 100 µM (inactive) | > 100 µM | > 100 µM (inactive) | > 100 µM (inactive) | > 100 µM (inactive) | > 100 µM (inactive) |  | > 100 µM (inactive) | > 100 µM (inactive) | > 100 µM (inactive) | > 100 µM (inactive) | > 100 µM (inactive) | > 100 µM (inactive) | > 100 µM (inactive) |  | 
C[C@@H](c1ccccc1)C(CC#N)[C@H]1CCC[C@]1(O)C#Cc1ccc2c(c1)OCO2 (some centres undefined) | 19.8 µM (inactive) | 15.8 µM (inactive) | 16.3 µM (inactive) |  | 16 µM | 18.3 µM (inactive) | 15.8 µM (inactive) | 17.7 µM (inactive) | 15.8 µM (inactive) | 15.9 µM (inactive) | 14.4 µM (inactive) | 19.6 µM (inactive) | 18.1 µM (inactive) | 16.1 µM (inactive) |  | 16.9 µM (inactive) | 16.6 µM (inactive) | 18.4 µM (inactive) | 
CN(C)/C(=N\C#N)NCc1ccccc1 |  | > 100 µM (inactive) | > 100 µM (inactive) | > 100 µM (inactive) | > 100 µM |  |  | > 100 µM (inactive) | > 100 µM (inactive) |  |  | > 100 µM (inactive) | > 100 µM (inactive) | > 100 µM (inactive) | > 100 µM (inactive) | > 100 µM (inactive) | > 100 µM (inactive) |  | 
